# Assay results from US11351268B2, “FGF21 C-terminal peptide optimization” (INDIANA UNIVERSITY RESEARCH AND TECHNOLOGY CORPORATION, priority 2016, dated 2022).
# Non-standard residues stand in square brackets, D forms with d. Residues, ends and D or L forms follow the SMILES beside them. No end group written: not given here.
# Molecular target: T1, Klotho β (KLB) (Homo sapiens, UniProt Q86Z14)
# T1 construct: expressed in transfected cells; host or cells: HEK 293T (ATCC), pooled Zeocin-selected cells stably expressing hKLB from pcDNA3.1(+)
# T1 sequence (Q86Z14 1-1044): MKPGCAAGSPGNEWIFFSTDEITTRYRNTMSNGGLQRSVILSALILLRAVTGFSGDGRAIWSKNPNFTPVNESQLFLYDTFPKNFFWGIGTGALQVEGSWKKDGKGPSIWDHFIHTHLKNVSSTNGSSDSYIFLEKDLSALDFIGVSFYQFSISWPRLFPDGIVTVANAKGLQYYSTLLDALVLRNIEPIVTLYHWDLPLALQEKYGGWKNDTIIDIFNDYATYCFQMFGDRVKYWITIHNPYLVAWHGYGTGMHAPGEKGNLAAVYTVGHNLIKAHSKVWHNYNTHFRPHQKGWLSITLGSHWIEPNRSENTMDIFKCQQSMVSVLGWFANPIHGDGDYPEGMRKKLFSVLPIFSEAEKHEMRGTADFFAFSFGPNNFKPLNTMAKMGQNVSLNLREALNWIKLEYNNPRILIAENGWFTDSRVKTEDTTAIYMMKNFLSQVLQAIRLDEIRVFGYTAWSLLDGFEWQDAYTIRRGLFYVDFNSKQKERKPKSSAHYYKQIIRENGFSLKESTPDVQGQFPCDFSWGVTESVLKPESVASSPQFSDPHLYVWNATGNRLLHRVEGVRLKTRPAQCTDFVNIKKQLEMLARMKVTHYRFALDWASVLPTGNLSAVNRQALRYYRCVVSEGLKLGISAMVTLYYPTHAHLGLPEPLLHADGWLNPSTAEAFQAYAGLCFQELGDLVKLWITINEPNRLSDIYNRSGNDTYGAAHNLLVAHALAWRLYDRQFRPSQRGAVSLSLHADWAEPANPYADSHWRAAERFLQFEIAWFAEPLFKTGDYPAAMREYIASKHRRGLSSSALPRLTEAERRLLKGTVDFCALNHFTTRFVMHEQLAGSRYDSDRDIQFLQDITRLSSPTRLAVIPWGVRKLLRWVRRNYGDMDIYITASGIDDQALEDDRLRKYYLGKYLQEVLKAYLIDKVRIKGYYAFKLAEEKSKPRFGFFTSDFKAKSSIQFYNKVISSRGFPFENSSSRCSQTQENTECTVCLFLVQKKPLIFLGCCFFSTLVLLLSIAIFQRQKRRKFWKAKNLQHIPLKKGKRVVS
# Assay: cell-based
# Format: cell-based
# Details: not given
# Procedure: Cells were cultured in 10% Fetal Bovine Serum containing DMEM High glucose GLUTAMAX® at 37 C, 95% humidity, 5% CO2. For generating the cell line with stable expression, human KLB gene was synthesized by Genscript and subcloned into pcDNA3.1(+) with ZEOCIN® resistance vector (INVITROGEN®) by NheI and NotI restriction enzyme sites. HEK 293T cells were obtained from ATCC and were transiently transfected at 80% confluency using Lipofectamine 3000 (Invitrogen). Selection for KLB-expressing cells was initiated 48 hours post-transfection in the growth media containing 100 μg/ml of ZEOCIN® (Gibco) and continued for 4 weeks with fresh media added every third day. Human KLB expression in pooled cells was confirmed by Western blot and a functional FGF21 MAPK phosphorylation assay.
# 293 HEK cells expressing hKLB were plated to 90% confluency in 96 well plates coated with poly-D-Lysine. Cells were serum starved for three hours in 0.1% BSA containing media prior to stimulation with protein and/or an antagonist peptide for ten minutes at 37° C. The cell lysate was used for the detection of phospho-Erk1/2 levels by AlphaSureFire kit using the prescribed protocol. The degree of biochemical activation was recorded and analyzed using Origin software by logistic curve fitting. Tests at each concentration were done in triplicates, and the standard deviation is as shown in the graphs. The calculation of maximal activities was done keeping the FGF21 157-181 or FGF19 169-194 peptide activity as standard. The difference between the Erk1/2 phosphorylation signal for the highest (10 μM) and the lowest (0 μM) tested dose for native peptide was considered as 100% and accordingly all the other values were assigned.
row,Compound,% max activity [%]
1,"PPDVASSDPLSMVGPSQGRSPSYAS-NH2 (C-terminus assumed) [Peptide A5, PPDVASSDPLSMVGPSQGRSPSYAS]",102.5

# Same assay, conditions: 10 nM FGF21 stimulation, 293 HEK hKLB cells
row,Compound,antagonism of FGF21 activity (in words)
1,"FGF19 (amino acids 165-194): C-terminal peptide of FGF19, amino acids 165-194 (FLPMLPMVPEEPEDLRGHLESDMFSSPLET) [reference compound]",exhibit antagonism to FGF21 activity
2,"FGF21 159-181: 23-amino acid C-terminal fragment of FGF21 (DVGSSDPLSMVGPSQGRSPSYAS; UniProt Q9NSA1 187-209, looked up, fragment) [reference compound]",weak antagonism
3,"FGF21 160-181: C-terminal fragment of FGF21 described as 24-amino acid (VGSSDPLSMVGPSQGRSPSYAS; UniProt Q9NSA1 188-209, looked up, fragment) [reference compound]",dramatically improved its antagonistic potential
4,"FGF21 162-181: C-terminal fragment of FGF21, residues 162-181 (SSDPLSMVGPSQGRSPSYAS) [reference compound]",non-functional
5,"FGF21 (amino acids 153-181): C-terminal peptide of FGF21, amino acids 153-181 (LAPQPPDVGSSDPLSMVGPSQGRSPSYAS) [reference compound]",exhibit antagonism to FGF21 activity

# Same assay, conditions: FIG. 8A, substitutions at terminal position of FGF19 169-194 peptide
row,Compound,IC50 [nM]
1,PLETDSMDPFGLVTGLEAVRSPSFEA-NH2 (C-terminus assumed) [FGF19 A25],10.5
2,PLETDSMDPFGLVTGLEAVRSPSFEE-NH2 (C-terminus assumed) [Peptide K194E],87.9
3,PLETDSMDPFGLVTGLEAVRSPSFEL-NH2 (C-terminus assumed) [Peptide K194L],17.3
4,PLETDSMDPFGLVTGLEAVRSPSFES-NH2 (C-terminus assumed) [Peptide K194S],22.3

# Same assay, conditions: FIG. 8B, FGF21 and FGF19 C-terminal peptides
row,Compound,IC50 [nM]
1,PLETDSMDPFGLVTGLEAVRSPSFEA-NH2 (C-terminus assumed) [FGF19 A25],0.5
2,"PLETDSMDPFGLVTGLEAVRSPSFEK-NH2 (C-terminus assumed) [FGF19 WT, reference compound]",50

# Same assay, conditions: Table 1; native sequence = 100% response; read-out: % max activity
row,Compound,Emax [%]
1,"APDVGSSDPLSMVGPSQGRSPSYAS-NH2 (C-terminus assumed) [Peptide A1, APDVGSSDPLSMVGPSQGRSPSYAS]",100
2,"PADVGSSDPLSMVGPSQGRSPSYAS-NH2 (C-terminus assumed) [Peptide A2, PADVGSSDPLSMVGPSQGRSPSYAS]",98.5
3,"PPAVGSSDPLSMVGPSQGRSPSYAS-NH2 (C-terminus assumed) [Peptide A3, PPAVGSSDPLSMVGPSQGRSPSYAS]",87.8
4,"PPDAGSSDPLSMVGPSQGRSPSYAS-NH2 (C-terminus assumed) [Peptide A4, PPDAGSSDPLSMVGPSQGRSPSYAS]",63.6
5,"PPDVGASDPLSMVGPSQGRSPSYAS-NH2 (C-terminus assumed) [Peptide A6, PPDVGASDPLSMVGPSQGRSPSYAS]",89.2
6,"PPDVGSADPLSMVGPSQGRSPSYAS-NH2 (C-terminus assumed) [Peptide A7, PPDVGSADPLSMVGPSQGRSPSYAS]",94.5
7,"PPDVGSSDPASMVGPSQGRSPSYAS-NH2 (C-terminus assumed) [Peptide A10, PPDVGSSDPASMVGPSQGRSPSYAS]",76

# Same assay, conditions: Table 2(A), FGF19 169-194 alanine mutants, ≥95% maximal activity
row,Compound,IC50 [nM]
1,"PLETDSMDPFGLVTGLEAVRSPSFEK-NH2 (C-terminus assumed) [FGF19 WT, reference compound]",270 ± 90

# Same assay, conditions: Table 3, D-amino acid scan of FGF21 C-terminal 25mer
row,Compound,IC50 [nM]
1,"CSCC[C@H](NC(=O)[C@H](CO)NC(=O)[C@H](CC(C)C)NC(=O)[C@@H]1CCCN1C(=O)[C@H](CC(=O)O)NC(=O)[C@H](CO)NC(=O)[C@H](CO)NC(=O)CNC(=O)[C@@H](NC(=O)[C@H](CC(=O)O)NC(=O)[C@@H]1CCCN1C(=O)[C@@H]1CCCN1)C(C)C)C(=O)N[C@H](C(=O)NCC(=O)N1CCC[C@H]1C(=O)N[C@@H](CO)C(=O)N[C@@H](CCC(N)=O)C(=O)NCC(=O)N[C@@H](CCCNC(=N)N)C(=O)N[C@@H](CO)C(=O)N1CCC[C@H]1C(=O)N[C@@H](CO)C(=O)N[C@@H](Cc1ccc(O)cc1)C(=O)N[C@@H](C)C(=O)N[C@H](CO)C(N)=O)C(C)C [d25, PPDVG SSDPL SMVGP SQGRS PSYAs] (H-PPDVGSSDPLSMVGPSQGRSPSYA[dS]-NH2; N-terminus and C-terminus assumed)",264 ± 120

# Same assay, conditions: Table 3, D-amino acid scan; C25 = 100
row,Compound,% Activity vs C25 [%]
1,"CSCC[C@H](NC(=O)[C@H](CO)NC(=O)[C@H](CC(C)C)NC(=O)[C@@H]1CCCN1C(=O)[C@H](CC(=O)O)NC(=O)[C@H](CO)NC(=O)[C@H](CO)NC(=O)CNC(=O)[C@@H](NC(=O)[C@H](CC(=O)O)NC(=O)[C@@H]1CCCN1C(=O)[C@@H]1CCCN1)C(C)C)C(=O)N[C@H](C(=O)NCC(=O)N1CCC[C@H]1C(=O)N[C@@H](CO)C(=O)N[C@@H](CCC(N)=O)C(=O)NCC(=O)N[C@H](CCCNC(=N)N)C(=O)N[C@@H](CO)C(=O)N1CCC[C@H]1C(=O)N[C@@H](CO)C(=O)N[C@@H](Cc1ccc(O)cc1)C(=O)N[C@@H](C)C(=O)N[C@@H](CO)C(N)=O)C(C)C [d19, PPDVG SSDPL SMVGP SQGrS PSYAS] (H-PPDVGSSDPLSMVGPSQG[dR]SPSYAS-NH2; N-terminus and C-terminus assumed)",270.70 ± 136.83
2,"CSCC[C@H](NC(=O)[C@H](CO)NC(=O)[C@H](CC(C)C)NC(=O)[C@@H]1CCCN1C(=O)[C@H](CC(=O)O)NC(=O)[C@H](CO)NC(=O)[C@H](CO)NC(=O)CNC(=O)[C@@H](NC(=O)[C@H](CC(=O)O)NC(=O)[C@@H]1CCCN1C(=O)[C@@H]1CCCN1)C(C)C)C(=O)N[C@H](C(=O)NCC(=O)N1CCC[C@H]1C(=O)N[C@@H](CO)C(=O)N[C@@H](CCC(N)=O)C(=O)NCC(=O)N[C@@H](CCCNC(=N)N)C(=O)N[C@@H](CO)C(=O)N1CCC[C@@H]1C(=O)N[C@@H](CO)C(=O)N[C@@H](Cc1ccc(O)cc1)C(=O)N[C@@H](C)C(=O)N[C@@H](CO)C(N)=O)C(C)C [d21, PPDVG SSDPL SMVGP SQGRS pSYAS] (H-PPDVGSSDPLSMVGPSQGRS[dP]SYAS-NH2; N-terminus and C-terminus assumed)",3.80 ± 0.87

# Same assay, conditions: Table 5, FGF19/FGF21 chimeric peptides
row,Compound,IC50 [nM]
1,PLETDSMDPFGLVGPSQGRSPSFEA-NH2 (C-terminus assumed) [Peptide 0430],15.9 ± 1.1
2,PLETDSMDPFGLVTGLEAVRSPSFEA-NH2 (C-terminus assumed) [FGF19 A25],19.1 ± 1.5
3,PLETDSSDPLSMVGPSQGRSPSFEA-NH2 (C-terminus assumed) [Peptide 0432],120 ± 6.3
4,PLETDSSDPLSMVTGLEAVRSPSYAA-NH2 (C-terminus assumed) [Peptide 0434],264 ± 78.8
5,PPDVGSMDPFGLVGPSQGRSPSFEA-NH2 (C-terminus assumed) [Peptide 0431],4.1 ± 0.1
6,PPDVGSMDPFGLVTGLEAVRSPSYAA-NH2 (C-terminus assumed) [Peptide 0433],10.7 ± 0.7

# Same assay, conditions: Table 6, derivatives of SEQ ID NO: 180
row,Compound,IC50 [nM]
1,PPDVFSMDPFGLVGPSQGRSPSFEA-NH2 (C-terminus assumed) [Peptide 0480],2.6 ± 0.5
2,PPDVGSMDPFGLVGPSQGRSPSFEA-NH2 (C-terminus assumed) [Peptide 0431],7.1 ± 3
3,PPDVGSMDPFGLVGRSQGRSPSFEA-NH2 (C-terminus assumed) [Peptide 0470],4.9 ± 1.1
4,PPDVGSSDPFGLVGPSQGRSPSFEA-NH2 (C-terminus assumed) [Peptide 0486],4.7 ± 1.6

# Same assay, conditions: relative to native C-terminal peptide
row,Compound,fold increase of antagonistic potency over the native peptide [fold]
1,"CSCC[C@H](NC(=O)[C@H](CO)NC(=O)[C@H](CC(C)C)NC(=O)[C@@H]1CCCN1C(=O)[C@H](CC(=O)O)NC(=O)[C@H](CO)NC(=O)[C@H](CO)NC(=O)CNC(=O)[C@@H](NC(=O)[C@H](CC(=O)O)NC(=O)[C@@H]1CCCN1C(=O)[C@@H]1CCCN1)C(C)C)C(=O)N[C@H](C(=O)NCC(=O)N1CCC[C@H]1C(=O)N[C@@H](CO)C(=O)N[C@@H](CCC(N)=O)C(=O)NCC(=O)N[C@H](CCCNC(=N)N)C(=O)N[C@@H](CO)C(=O)N1CCC[C@H]1C(=O)N[C@@H](CO)C(=O)N[C@@H](Cc1ccc(O)cc1)C(=O)N[C@@H](C)C(=O)N[C@@H](CO)C(N)=O)C(C)C [d19, PPDVG SSDPL SMVGP SQGrS PSYAS] (H-PPDVGSSDPLSMVGPSQG[dR]SPSYAS-NH2; N-terminus and C-terminus assumed)",2
